Data reported in ChEMBL document CHEMBL5715954, “Silencing c-Myc translation as a therapeutic strategy through targeting PI3Kδ and CK1ε in hematological malignancies” (Blood, 2017).

Legend:
Parameters in all cases: scale not given: the % may be the effect or the level left
[1] = target: Cyclin-dependent kinase 14/Cyclin-Y (Homo sapiens) (UniProt O94921+Q8ND76); experiment: Inhibition of human CDK14/cyclin Y assessed as enzyme activity at 1 uM using RB Protein as substrate preincubated for 20 mins followed by [gamma-33P]-ATP addition and measured after 120 mins by radiometric Hot-SpotSM Kinase assay relative to control; assay type: protein-complex assay
[2] = target: CDK2/Cyclin A1 (Homo sapiens) (UniProt P24941+P78396); experiment: Inhibition of human CDK2/Cyclin A1 assessed as enzyme activity at 1 uM using RB Protein as substrate preincubated for 20 mins followed by [gamma-33P]-ATP addition and measured after 120 mins by radiometric Hot-SpotSM Kinase assay relative to control; assay type: protein-complex assay
[3] = target: CDK6/cyclin D1 (Homo sapiens) (UniProt P24385+Q00534); experiment: Inhibition of human CDK6/cyclin D1 assessed as enzyme activity at 1 uM using RB Protein as substrate preincubated for 20 mins followed by [gamma-33P]-ATP addition and measured after 120 mins by radiometric Hot-SpotSM Kinase assay relative to control; assay type: protein-complex assay
[4] = target: Casein kinase II subunit alpha' (Homo sapiens) (UniProt P19784); experiment: Inhibition of human CK2a2 assessed as enzyme activity at 1 uM using RRRDDDSDDD as substrate preincubated for 20 mins followed by [gamma-33P]-ATP addition and measured after 120 mins by radiometric Hot-SpotSM Kinase assay relative to control
[5] = target: Dual specificity protein kinase CLK3 (Homo sapiens) (UniProt P49761); experiment: Inhibition of human CLK3 assessed as enzyme activity at 1 uM using myelin basic protein as substrate preincubated for 20 mins followed by [gamma-33P]-ATP addition and measured after 120 mins by radiometric Hot-SpotSM Kinase assay relative to control
[6] = target: Tyrosine-protein kinase Fes/Fps (Homo sapiens) (UniProt P07332); experiment: Inhibition of human FES/FPS assessed as enzyme activity at 1 uM using poly[Glu:Tyr] (4:1) as substrate preincubated for 20 mins followed by [gamma-33P]-ATP addition and measured after 120 mins by radiometric Hot-SpotSM Kinase assay relative to control
[7] = target: Glycogen synthase kinase-3 beta (Homo sapiens) (UniProt P49841); experiment: Inhibition of human GSK3b assessed as enzyme activity at 1 uM using YRRAAVPPSPSLSRHSSPHQ(pS)EDEEE as substrate preincubated for 20 mins followed by [gamma-33P]-ATP addition and measured after 120 mins by radiometric Hot-SpotSM Kinase assay relative to control
[8] = target: PAS domain-containing serine/threonine-protein kinase (Homo sapiens) (UniProt Q96RG2); experiment: Inhibition of human PASK assessed as enzyme activity at 1 uM using KKLNRTLSFAEPG as substrate preincubated for 20 mins followed by [gamma-33P]-ATP addition and measured after 120 mins by radiometric Hot-SpotSM Kinase assay relative to control
[9] = target: Testis-specific serine/threonine-protein kinase 6 (Homo sapiens) (UniProt Q9BXA6); experiment: Inhibition of human SSTK assessed as enzyme activity at 1 uM using myelin basic protein as substrate preincubated for 20 mins followed by [gamma-33P]-ATP addition and measured after 120 mins by radiometric Hot-SpotSM Kinase assay relative to control
[10] = target: BDNF/NT-3 growth factors receptor (Homo sapiens) (UniProt Q16620); experiment: Inhibition of human TRKB assessed as enzyme activity at 1 uM using poly[Glu:Tyr] (4:1) as substrate preincubated for 20 mins followed by [gamma-33P]-ATP addition and measured after 120 mins by radiometric Hot-SpotSM Kinase assay relative to control
[11] = target: T1, Testis-specific serine/threonine-protein kinase 2 (Homo sapiens) (UniProt Q96PF2); experiment: Inhibition of human TSSK2 assessed as enzyme activity at 1 uM using KKKVSRSGLYRSPSMPENLNRPR as substrate preincubated for 20 mins followed by [gamma-33P]-ATP addition and measured after 120 mins by radiometric Hot-SpotSM Kinase assay relative to control
T1 sequence (whole entry): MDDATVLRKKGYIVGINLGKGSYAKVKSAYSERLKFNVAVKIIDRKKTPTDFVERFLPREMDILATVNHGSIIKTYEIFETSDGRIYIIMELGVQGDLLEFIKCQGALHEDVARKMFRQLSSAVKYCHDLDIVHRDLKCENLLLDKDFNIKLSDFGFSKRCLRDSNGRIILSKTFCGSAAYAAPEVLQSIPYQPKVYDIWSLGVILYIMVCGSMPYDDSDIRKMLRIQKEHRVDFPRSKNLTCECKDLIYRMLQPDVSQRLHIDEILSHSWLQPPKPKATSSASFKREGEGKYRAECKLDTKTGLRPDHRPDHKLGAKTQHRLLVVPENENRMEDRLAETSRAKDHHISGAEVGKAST

Sequence of Glycogen synthase kinase-3 beta (Homo sapiens) (P49841 whole entry, looked up, the tested form may be a part): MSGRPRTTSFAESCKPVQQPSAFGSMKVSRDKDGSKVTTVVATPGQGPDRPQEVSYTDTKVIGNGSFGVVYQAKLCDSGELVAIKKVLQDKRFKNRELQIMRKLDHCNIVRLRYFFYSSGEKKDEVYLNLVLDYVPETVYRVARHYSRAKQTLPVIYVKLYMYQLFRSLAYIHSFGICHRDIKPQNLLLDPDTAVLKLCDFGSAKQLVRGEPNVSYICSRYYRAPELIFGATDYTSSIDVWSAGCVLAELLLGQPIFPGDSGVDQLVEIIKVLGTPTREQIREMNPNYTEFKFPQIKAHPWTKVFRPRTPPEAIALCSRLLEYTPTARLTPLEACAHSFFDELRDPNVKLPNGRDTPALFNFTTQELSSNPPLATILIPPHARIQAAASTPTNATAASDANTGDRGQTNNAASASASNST
Sequence of Tyrosine-protein kinase Fes/Fps (Homo sapiens) (P07332 whole entry): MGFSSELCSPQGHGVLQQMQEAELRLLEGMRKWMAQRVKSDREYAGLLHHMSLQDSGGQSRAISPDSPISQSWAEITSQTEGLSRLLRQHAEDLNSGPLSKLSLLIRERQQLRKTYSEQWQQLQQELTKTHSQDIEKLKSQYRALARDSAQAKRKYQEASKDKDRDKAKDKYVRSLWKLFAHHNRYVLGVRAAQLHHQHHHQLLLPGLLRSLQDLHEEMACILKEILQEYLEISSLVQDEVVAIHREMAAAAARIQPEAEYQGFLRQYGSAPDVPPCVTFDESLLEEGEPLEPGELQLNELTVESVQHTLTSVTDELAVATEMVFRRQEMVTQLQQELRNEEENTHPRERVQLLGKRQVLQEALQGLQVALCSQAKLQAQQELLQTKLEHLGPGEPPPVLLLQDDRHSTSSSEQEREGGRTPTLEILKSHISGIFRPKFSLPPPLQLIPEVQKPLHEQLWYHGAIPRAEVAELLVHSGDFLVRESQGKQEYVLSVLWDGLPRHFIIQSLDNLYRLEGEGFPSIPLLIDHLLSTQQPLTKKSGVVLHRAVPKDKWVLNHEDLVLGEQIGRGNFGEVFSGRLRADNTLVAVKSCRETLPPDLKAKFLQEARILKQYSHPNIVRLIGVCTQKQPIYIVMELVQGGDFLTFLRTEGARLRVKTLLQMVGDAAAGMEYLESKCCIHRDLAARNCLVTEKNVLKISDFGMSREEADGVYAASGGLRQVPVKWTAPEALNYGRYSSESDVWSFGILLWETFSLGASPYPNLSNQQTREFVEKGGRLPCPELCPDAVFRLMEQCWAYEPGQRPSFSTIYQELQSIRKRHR
Sequence of BDNF/NT-3 growth factors receptor (Homo sapiens) (Q16620 32-822 limits assumed): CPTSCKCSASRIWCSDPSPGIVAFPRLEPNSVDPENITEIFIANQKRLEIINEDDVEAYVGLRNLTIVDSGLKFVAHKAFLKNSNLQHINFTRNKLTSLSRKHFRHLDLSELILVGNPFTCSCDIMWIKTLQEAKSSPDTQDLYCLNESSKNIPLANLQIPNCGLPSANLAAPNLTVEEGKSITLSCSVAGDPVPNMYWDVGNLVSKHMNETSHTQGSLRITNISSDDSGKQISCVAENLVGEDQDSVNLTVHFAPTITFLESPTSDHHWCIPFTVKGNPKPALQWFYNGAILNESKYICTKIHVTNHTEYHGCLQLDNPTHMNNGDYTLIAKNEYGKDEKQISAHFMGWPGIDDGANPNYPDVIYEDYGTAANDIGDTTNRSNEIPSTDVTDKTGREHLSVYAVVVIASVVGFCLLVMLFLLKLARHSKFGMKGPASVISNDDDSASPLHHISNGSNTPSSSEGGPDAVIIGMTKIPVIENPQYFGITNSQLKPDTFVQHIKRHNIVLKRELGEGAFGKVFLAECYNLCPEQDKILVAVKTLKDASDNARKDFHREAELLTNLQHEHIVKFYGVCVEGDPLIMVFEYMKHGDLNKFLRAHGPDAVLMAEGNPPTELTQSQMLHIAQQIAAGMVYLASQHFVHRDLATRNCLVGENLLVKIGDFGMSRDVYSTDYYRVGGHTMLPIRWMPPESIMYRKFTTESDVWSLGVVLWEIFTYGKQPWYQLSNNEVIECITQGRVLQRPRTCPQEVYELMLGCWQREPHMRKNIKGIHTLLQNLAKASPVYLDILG
Sequence of PAS domain-containing serine/threonine-protein kinase (Homo sapiens) (Q96RG2 whole entry, the tested form may be a part): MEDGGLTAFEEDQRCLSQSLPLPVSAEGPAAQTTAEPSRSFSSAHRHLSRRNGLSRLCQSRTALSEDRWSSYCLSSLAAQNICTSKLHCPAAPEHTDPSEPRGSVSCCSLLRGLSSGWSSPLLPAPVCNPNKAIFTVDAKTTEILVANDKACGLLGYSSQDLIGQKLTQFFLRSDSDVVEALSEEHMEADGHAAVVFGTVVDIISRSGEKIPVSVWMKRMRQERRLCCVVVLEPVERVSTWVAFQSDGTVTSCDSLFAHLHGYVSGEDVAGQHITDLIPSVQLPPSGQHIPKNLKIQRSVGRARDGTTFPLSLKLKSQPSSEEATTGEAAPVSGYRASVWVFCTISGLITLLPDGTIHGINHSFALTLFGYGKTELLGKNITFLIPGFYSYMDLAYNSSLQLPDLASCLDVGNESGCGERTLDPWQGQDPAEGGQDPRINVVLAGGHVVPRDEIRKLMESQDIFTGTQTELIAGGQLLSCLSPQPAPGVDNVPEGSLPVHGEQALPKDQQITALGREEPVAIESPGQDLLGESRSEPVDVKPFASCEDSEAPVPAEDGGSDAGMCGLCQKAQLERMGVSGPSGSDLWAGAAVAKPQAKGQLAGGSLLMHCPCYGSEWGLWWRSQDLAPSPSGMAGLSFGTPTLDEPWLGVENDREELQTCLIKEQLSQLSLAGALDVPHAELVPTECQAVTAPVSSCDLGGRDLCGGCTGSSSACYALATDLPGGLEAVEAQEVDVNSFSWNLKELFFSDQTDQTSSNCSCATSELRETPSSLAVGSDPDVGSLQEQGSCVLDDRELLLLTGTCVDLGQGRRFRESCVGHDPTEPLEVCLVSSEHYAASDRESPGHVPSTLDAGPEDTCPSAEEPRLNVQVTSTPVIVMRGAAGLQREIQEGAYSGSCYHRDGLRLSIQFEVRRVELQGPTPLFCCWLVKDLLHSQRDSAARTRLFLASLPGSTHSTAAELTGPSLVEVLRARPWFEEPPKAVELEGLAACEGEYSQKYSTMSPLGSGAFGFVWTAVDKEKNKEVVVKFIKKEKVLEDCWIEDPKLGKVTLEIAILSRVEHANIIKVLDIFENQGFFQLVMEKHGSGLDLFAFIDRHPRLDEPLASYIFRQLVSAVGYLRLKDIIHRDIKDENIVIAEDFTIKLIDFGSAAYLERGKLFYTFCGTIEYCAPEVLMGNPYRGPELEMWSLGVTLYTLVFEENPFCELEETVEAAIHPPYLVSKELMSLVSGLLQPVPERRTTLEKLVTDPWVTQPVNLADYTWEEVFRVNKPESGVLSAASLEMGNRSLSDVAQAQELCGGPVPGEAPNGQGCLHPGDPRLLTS
Sequence of Testis-specific serine/threonine-protein kinase 6 (Homo sapiens) (Q9BXA6 whole entry): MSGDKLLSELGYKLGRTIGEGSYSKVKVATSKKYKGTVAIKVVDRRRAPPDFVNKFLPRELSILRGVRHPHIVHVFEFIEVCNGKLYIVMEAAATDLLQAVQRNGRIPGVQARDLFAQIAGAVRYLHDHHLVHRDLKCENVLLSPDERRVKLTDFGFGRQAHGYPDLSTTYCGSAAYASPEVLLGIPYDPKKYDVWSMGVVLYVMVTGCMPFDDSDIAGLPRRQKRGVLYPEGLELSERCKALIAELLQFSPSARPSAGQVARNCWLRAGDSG
Sequence of Casein kinase II subunit alpha' (Homo sapiens) (P19784 whole entry, looked up): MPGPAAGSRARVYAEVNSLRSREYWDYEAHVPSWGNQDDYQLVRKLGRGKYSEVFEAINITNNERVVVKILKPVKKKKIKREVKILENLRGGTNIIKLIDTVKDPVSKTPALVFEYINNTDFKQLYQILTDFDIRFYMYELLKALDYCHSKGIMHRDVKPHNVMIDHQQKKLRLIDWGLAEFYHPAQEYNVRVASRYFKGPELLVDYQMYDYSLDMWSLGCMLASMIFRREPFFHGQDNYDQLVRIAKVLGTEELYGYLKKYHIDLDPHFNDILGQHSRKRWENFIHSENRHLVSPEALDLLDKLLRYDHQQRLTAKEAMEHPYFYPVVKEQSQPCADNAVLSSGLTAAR
Sequence of Dual specificity protein kinase CLK3 (Homo sapiens) (P49761 whole entry, looked up): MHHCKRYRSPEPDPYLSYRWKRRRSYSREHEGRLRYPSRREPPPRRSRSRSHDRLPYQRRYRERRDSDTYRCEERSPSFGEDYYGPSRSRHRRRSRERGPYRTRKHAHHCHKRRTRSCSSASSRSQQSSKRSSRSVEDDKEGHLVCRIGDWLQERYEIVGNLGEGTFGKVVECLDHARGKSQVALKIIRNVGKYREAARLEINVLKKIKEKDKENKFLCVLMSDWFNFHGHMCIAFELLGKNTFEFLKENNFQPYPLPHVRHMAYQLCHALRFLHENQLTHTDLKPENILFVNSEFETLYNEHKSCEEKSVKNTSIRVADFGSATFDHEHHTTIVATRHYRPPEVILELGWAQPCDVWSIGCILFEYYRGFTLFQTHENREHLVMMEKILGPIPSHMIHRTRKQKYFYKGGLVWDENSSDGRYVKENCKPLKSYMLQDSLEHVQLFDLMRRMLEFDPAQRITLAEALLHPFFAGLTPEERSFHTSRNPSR

Compound | Activity [1] | Activity [2] | Activity [3] | Activity [4] | Activity [5] | Activity [6] | Activity [7] | Activity [8] | Activity [9] | Activity [10] | Activity [11]
CC[C@H](Nc1ncnc2[nH]cnc12)c1nc2cccc(F)c2c(=O)n1-c1ccccc1 | 77.4% | 86.7% | 94.6% | 91.8% | 89% | 91.5% | 114% | 99.6% | 105% | 94.1% | 104%
CC(C)Oc1ccc(-c2nn([C@@H](C)c3oc4ccc(F)cc4c(=O)c3-c3cccc(F)c3)c3ncnc(N)c23)cc1F [UMBRALISIB] | 79.3% | 78% | 89.2% | 86.4% | 93.7% | 97.5% | 111% | 98.7% | 102% | 96% | 100%
C[C@H](Nc1ncnc2nc[nH]c12)c1cc2cccc(Cl)c2c(=O)n1-c1ccccc1 | 85.3% | 79.7% | 91.3% | 99.5% | 92.3% | 95.6% | 113% | 95.3% | 103% | 95.8% | 98%
